Key:
[1] = system: ΔamiAC MG1655 E. coli; assay: Microscopy of ΔamiAC MG1655 E. coli; format: cell-based; conditions: sub-inhibitory concentrations: vancomycin 3 μM, VanQAmC10 2 μM (Fig. 5D)
Procedure: The bacterial amidases help cleave the septum in the final stage of cell division to produce daughter cells.[39] In the absence of amidases, chains of unseparated cells are formed (Fig. 5D). These retain distinct cytoplasmic compartments but share an outer membrane.[39] These cells are known to be hypersensitive to antibiotics and detergents. However, ΔamiAC mutations are resistant to killing by cephalexin.[38] The MIC of VanQAmC10 against the ΔamiAC mutant was reduced to 4 μM, while that of vancomycin was >10 μM. […] This is indicative of impaired cell division. Cell debris due to lysis after compound treatment are also visible. […]
from 10 μg/mL. The bacteria with compounds and untreated control were incubated for 18 h at 37 ̊C under shaking and OD600 was measured.
Microscopy of ΔamiAC MG1655 E. coli
ΔamiAC MG1655 was cultured overnight in LB media at 37 ̊C. […]
MRSA ATCC 33591 was grown to mid-log phase at 37 °C. […] The viable bacteria were then counted after 48 h incubation at 37 °C. […]
Antagonization of antibacterial activity of AAV-qC10 was determined by addition of 500 μM N,N՛-diacetyl–L-Lys–D-Ala–D-Ala or 100 μg/mL of lipoteichoic acid to serial dilutions of the test compound. The MIC was then determined against MRSA by measuring the OD600 18-24 […]
Vancomycin was chosen as control antibiotic for MRSA. The initial MIC values of VanQAmC10, vancomycin were determined against the respective bacteria. […]

[2] = system: MRSA ATCC33591; assay: Neutropenic murine thigh infection model; format: in vivo, Balb/c mice; conditions: for bacterial load in thigh: 12 mg kg^−1 i.p. at 1 h and 13 h post-infection, 24 h, untreated 8 log CFU g^−1
Procedure: The in vitro activity, low toxicity, and stability in plasma and liver homogenate, supported the potential of VanQAmC10 as a candidate for the treatment of bacterial infections. The efficacy of VanQAmC10 (8) against MRSA was tested in a neutropenic mouse thigh infection model. Infection was established by injecting them with 5 × 10^5 CFU of MRSA in the thigh. 1 h and 13 h post-infection, mice were treated with 12 mg kg^−1 of vancomycin and VanQAmC10 administered intraperitoneally (Fig. 6B). The mice were sacrificed 24 h post-infection. […] In the untreated group, the bacterial load increased to 8 log CFU g^−1. […] However, treatment with VanQAmC10 reduced the bacterial load to 3.3 log CFU g^−1, which is a 1.5 log CFU g^−1 lower bacterial load than observed against vancomycin. […]
bacterial concentration was adjusted to ~ […] based on OD600. The process was repeated for 27 passages. The fold of MIC increased for test compounds were plotted against […]
Activity in blood plasma and liver homogenate
To examine the susceptibility of VanQAmC10 to serum proteases, the antibacterial activities was tested in the presence of 50% of plasma and liver homogenate. Briefly, 250 μL of VanQAmC10 was added into 250 μL of fresh human plasma and incubated at 37 °C. An aliquot of the samples 3 h and 24h post-incubation was diluted in 0.9% saline and the antibacterial activity (MIC) were determined against MRSA and VRE by following the same protocol as described above for the antibacterial assay.
The toxicity of the lead compound VanQAmC10 was tested in mice through various modes of administration and reported as the LD50 (LD = lethal dose). The LD50 is the dosage that kills 50% of the test population of mice. […]
The doses for administration, were given modified OECD guidelines. LD50 was determined using Spearman-Karber method. […]
Groups of four 6 to 8 week-old Balb/c specific-pathogen-free female mice were used (weight ~22 g) for the experiment. […] The bacterial titer was expressed as Log CFU/g of thigh weight and plotted in GraphPad Prism software. […]

CCCCCCCCCCNC(=O)C[N+](C)(C)CCCNC(=O)C1NC(=O)C2NC(=O)C(NC(=O)C3NC(=O)C(CC(N)=O)NC(=O)C(NC(=O)C(CC(C)C)NC)C(O)c4ccc(c(Cl)c4)Oc4cc3cc(c4OC3OC(CO)C(O)C(O)C3OC3CC(C)(N)C(O)C(C)O3)Oc3ccc(cc3Cl)C2O)c2ccc(O)c(c2)-c2c(O)cc(O)cc21 (centres unmarked) [VanQAmC10 (8)]
morphology of ΔamiAC mutant [1]: larger cell phenotypes of variable sizes
bacterial load in thigh [2]: 3.3 log CFU g^−1
lower bacterial load than observed against vancomycin ([2]; 12 mg kg^−1 i.p. twice): 1.5 log CFU g^−1

CN[C@H](CC(C)C)C(=O)N[C@H]1C(=O)N[C@@H](CC(N)=O)C(=O)N[C@H]2C(=O)N[C@H]3C(=O)N[C@H](C(=O)N[C@H](C(=O)O)c4cc(O)cc(O)c4-c4cc3ccc4O)[C@H](O)c3ccc(c(Cl)c3)Oc3cc2cc(c3O[C@@H]2O[C@H](CO)[C@@H](O)[C@H](O)[C@H]2O[C@H]2C[C@](C)(N)[C@H](O)[C@H](C)O2)Oc2ccc(cc2Cl)[C@H]1O [Vancomycin, reference compound]
morphology of ΔamiAC mutant [1]: few cells appear larger and bulky while most appear similar to the untreated bacteria
bacterial load in thigh [2]: 4.8 log CFU g^−1

Reference: publication PMC9977398, “Next-generation membrane-active glycopeptide antibiotics that also inhibit bacterial cell division” (Chemical Science, 2023)
